Laboratory results reported in ChEMBL document CHEMBL1909046, “DrugMatrix in vitro pharmacology data”.

Legend:
[1] = target: T1, C-X-C chemokine receptor type 1 (Homo sapiens, UniProt P25024); also: in other assays of this panel Not Active means under 50% inhibition at 10 µM
T1 sequence (P25024 whole entry): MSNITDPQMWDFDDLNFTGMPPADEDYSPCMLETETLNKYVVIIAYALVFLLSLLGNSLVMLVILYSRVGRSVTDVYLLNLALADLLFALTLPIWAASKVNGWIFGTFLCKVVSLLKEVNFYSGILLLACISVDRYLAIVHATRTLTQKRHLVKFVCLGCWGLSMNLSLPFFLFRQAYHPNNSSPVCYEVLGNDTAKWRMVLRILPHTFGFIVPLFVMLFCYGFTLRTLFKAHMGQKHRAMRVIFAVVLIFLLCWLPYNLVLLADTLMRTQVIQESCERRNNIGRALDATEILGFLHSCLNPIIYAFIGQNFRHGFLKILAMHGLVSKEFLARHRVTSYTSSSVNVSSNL

[2] = DRUGMATRIX: Tumor Necrosis Factor (TNF), Non-Selective radioligand binding (ligand: [125I] TNF-alpha); type: cell membranes, Membrane; conditions: u-937; Not Active = under 50% inhibition at 10 µM
Cathepsin G = target: T2, Cathepsin G (Homo sapiens, UniProt P08311); experiment: biochemical; type: tissue-based, Neutrophil; conditions: neutrophil;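 also: inhibition of Cathepsin G enzyme activity, tested on an AMC-conjugated peptide substrate; in other assays of this panel Not Active means under 50% inhibition at 10 µM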
T2 sequence (P08311 whole entry): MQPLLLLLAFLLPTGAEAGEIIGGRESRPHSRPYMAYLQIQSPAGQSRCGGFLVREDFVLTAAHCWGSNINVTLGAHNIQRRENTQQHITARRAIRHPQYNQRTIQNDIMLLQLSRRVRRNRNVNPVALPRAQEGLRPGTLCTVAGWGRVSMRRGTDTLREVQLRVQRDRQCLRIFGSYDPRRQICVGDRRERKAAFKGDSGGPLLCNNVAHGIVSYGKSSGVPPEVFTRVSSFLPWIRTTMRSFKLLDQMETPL

[3] = target: T3, Neuropeptide Y receptor type 1 (Homo sapiens, UniProt P25929); type: cell membranes, Membrane; conditions: sk-n-mc; also: in other assays of this panel Not Active means under 50% inhibition at 10 µM
T3 sequence (P25929 whole entry): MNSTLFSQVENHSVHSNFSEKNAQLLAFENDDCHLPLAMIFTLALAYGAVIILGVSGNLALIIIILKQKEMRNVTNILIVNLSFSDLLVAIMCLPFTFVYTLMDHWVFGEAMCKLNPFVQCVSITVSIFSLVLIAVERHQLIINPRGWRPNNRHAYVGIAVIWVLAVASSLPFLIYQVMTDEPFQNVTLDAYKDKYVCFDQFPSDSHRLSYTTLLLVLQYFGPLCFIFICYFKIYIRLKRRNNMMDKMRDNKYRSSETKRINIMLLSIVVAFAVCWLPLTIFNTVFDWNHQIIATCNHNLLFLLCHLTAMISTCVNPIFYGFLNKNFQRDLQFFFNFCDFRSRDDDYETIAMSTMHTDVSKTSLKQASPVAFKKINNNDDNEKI

Histamine H2 receptor = Histamine H2 receptor (Homo sapiens, UniProt P25021); type: cell membranes, CHO-K1, Membrane; conditions: cho-k1; also: in other assays of this panel Not Active means under 50% inhibition at 10 µM
Histamine H2 receptor, sequence (P25021 whole entry): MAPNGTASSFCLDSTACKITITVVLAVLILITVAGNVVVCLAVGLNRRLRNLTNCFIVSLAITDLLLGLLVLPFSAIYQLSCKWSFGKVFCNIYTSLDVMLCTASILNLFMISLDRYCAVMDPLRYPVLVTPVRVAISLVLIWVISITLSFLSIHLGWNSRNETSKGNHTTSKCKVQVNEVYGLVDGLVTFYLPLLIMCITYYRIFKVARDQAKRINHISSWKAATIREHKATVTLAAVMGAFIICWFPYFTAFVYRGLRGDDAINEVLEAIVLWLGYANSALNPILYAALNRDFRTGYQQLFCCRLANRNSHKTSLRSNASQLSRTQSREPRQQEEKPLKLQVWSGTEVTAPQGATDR

[4] = DRUGMATRIX: GABAA, Flunitrazepam, Central radioligand binding (ligand: [3H] Flunitrazepam); type: cell membranes, Rattus norvegicus, Wistar, Brain, Membrane; conditions: Not Active = under 50% inhibition at 10 µM
[5] = target: T4, Polyunsaturated fatty acid lipoxygenase ALOX15 (Oryctolagus cuniculus, UniProt P12530); experiment: biochemical; type: tissue-based, Reticulocytes
T4 sequence (P12530 whole entry): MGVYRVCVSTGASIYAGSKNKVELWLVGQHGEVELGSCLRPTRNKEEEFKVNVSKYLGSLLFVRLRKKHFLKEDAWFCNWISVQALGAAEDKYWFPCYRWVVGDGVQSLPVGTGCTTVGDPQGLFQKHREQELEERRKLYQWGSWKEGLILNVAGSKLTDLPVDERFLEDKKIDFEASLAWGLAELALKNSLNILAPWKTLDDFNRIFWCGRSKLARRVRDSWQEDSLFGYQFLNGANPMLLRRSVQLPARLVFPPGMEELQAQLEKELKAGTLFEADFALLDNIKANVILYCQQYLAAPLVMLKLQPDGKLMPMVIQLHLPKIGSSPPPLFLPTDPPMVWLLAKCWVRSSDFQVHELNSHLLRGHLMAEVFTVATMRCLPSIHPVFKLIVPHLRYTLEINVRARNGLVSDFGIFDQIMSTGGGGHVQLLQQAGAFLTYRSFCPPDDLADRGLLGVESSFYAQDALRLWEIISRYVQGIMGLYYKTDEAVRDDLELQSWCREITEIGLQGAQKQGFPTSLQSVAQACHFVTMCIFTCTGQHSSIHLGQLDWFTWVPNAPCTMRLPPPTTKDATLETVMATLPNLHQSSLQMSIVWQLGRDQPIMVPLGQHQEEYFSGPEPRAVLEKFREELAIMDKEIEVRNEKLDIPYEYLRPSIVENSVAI

| Compound | IC50 [1] | IC50 [2] | Ki [2] | IC50 (Cathepsin G) | IC50 [3] | IC50 (Histamine H2 receptor) | IC50 [4] | Ki [4] | IC50 ([5]; reticulocytes) | Ki [1] | Ki (Cathepsin G) | Ki [3] | Ki (Histamine H2 receptor) | Ki ([5]; reticulocytes) | IC50 ([5]; read-out: IC50) [µM] |
| --- | --- | --- | --- | --- | --- | --- | --- | --- | --- | --- | --- | --- | --- | --- | --- |
| O=C1CN(/N=C/c2ccc([N+](=O)[O-])o2)C(=O)N1 [NITROFURANTOIN] | Not Active | Not Active | Not Active | Not Active | Not Active | Not Active | Not Active | Not Active | Not Active | – | – | – | – | – | – |
| NCC(CC(=O)O)c1ccc(Cl)cc1 (configuration not stated) [BACLOFEN] | Not Active | Not Active | Not Active | Not Active | Not Active | Not Active | Not Active | Not Active | Not Active | – | – | – | – | – | – |
| OC[C@H]1O[C@@H]2O[C@H]3[C@H](O)[C@@H](O)[C@@H](O[C@H]4[C@H](O)[C@@H](O)[C@@H](O[C@H]5[C@H](O)[C@@H](O)[C@@H](O[C@H]6[C@H](O)[C@@H](O)[C@@H](O[C@H]7[C@H](O)[C@@H](O)[C@@H](O[C@H]8[C@H](O)[C@@H](O)[C@@H](O[C@H]1[C@H](O)[C@H]2O)O[C@@H]8CO)O[C@@H]7CO)O[C@@H]6CO)O[C@@H]5CO)O[C@@H]4CO)O[C@@H]3CO [BETADEX] | Not Active | Not Active | Not Active | Not Active | Not Active | Not Active | Not Active | Not Active | Not Active | – | – | – | – | – | – |
| CC(C)NCC(O)COc1ccc(CC(N)=O)cc1 (configuration not stated) [ATENOLOL] | Not Active | Not Active | Not Active | Not Active | Not Active | Not Active | Not Active | Not Active | Not Active | – | – | – | – | – | – |
| Cl.NC[C@H]1CC[C@H](C(=O)Oc2ccc(CCC(=O)O)cc2)CC1 [CETRAXATE HYDROCHLORIDE] | Not Active | Not Active | Not Active | Not Active | Not Active | Not Active | Not Active | Not Active | Not Active | – | – | – | – | – | – |
| O=C(NCCN1CCOCC1)c1ccc(Cl)cc1 [MOCLOBEMIDE] | Not Active | Not Active | Not Active | Not Active | Not Active | Not Active | Not Active | Not Active | Not Active | – | – | – | – | – | – |
| CARBOXYMETHYLCELLULOSE | Not Active | Not Active | Not Active | Not Active | Not Active | Not Active | Not Active | Not Active | Not Active | Not Active | Not Active | Not Active | Not Active | Not Active | – |
| C[C@@H]1[C@H](O)[C@@H](C)/C=C/C=C/C=C/C=C/C=C/C=C/C=C/[C@H](O[C@@H]2O[C@H](C)[C@@H](O)[C@H](N)[C@@H]2O)C[C@@H]2O[C@](O)(C[C@@H](O)C[C@@H](O)[C@H](O)CC[C@@H](O)C[C@@H](O)CC(=O)O[C@H]1C)C[C@H](O)[C@H]2C(=O)O [AMPHOTERICIN B] | Not Active | Not Active | Not Active | Not Active | Not Active | Not Active | Not Active | Not Active | Not Active | – | – | – | – | – | – |
| CCN(CCO)CCCC(C)Nc1ccnc2cc(Cl)ccc12 (configuration not stated) [HYDROXYCHLOROQUINE] | Not Active | Not Active | Not Active | Not Active | Not Active | Not Active | Not Active | Not Active | Not Active | – | – | – | – | – | – |
| CCC1(c2ccccc2)C(=O)NC(=O)NC1=O [PHENOBARBITAL] | Not Active | Not Active | Not Active | Not Active | Not Active | Not Active | Not Active | Not Active | Not Active | – | – | – | – | – | – |
| C=CCN1CC[C@]23c4c5ccc(O)c4O[C@H]2/C(=N/N=C2\CC[C@@]4(O)[C@H]6Cc7ccc(O)c8c7[C@@]4(CCN6CC=C)[C@H]2O8)CC[C@@]3(O)[C@H]1C5 [NALOXONAZINE] | Not Active | Not Active | Not Active | Not Active | Not Active | Not Active | Not Active | Not Active | Not Active | – | – | – | – | – | – |
| CC(C)(C#N)c1cc(Cn2cncn2)cc(C(C)(C)C#N)c1 [ANASTROZOLE] | Not Active | Not Active | Not Active | Not Active | Not Active | Not Active | Not Active | Not Active | Not Active | – | – | – | – | – | – |
| OC[C@H]1O[C@@H]2O[C@H]3[C@H](O)[C@@H](O)[C@@H](O[C@H]4[C@H](O)[C@@H](O)[C@@H](O[C@H]5[C@H](O)[C@@H](O)[C@@H](O[C@H]6[C@H](O)[C@@H](O)[C@@H](O[C@H]7[C@H](O)[C@@H](O)[C@@H](O[C@H]1[C@H](O)[C@H]2O)O[C@@H]7CO)O[C@@H]6CO)O[C@@H]5CO)O[C@@H]4CO)O[C@@H]3CO [ALFADEX] | Not Active | Not Active | Not Active | Not Active | Not Active | Not Active | Not Active | Not Active | Not Active | – | – | – | – | – | – |
| POVIDONE | Not Active | Not Active | Not Active | Not Active | Not Active | Not Active | Not Active | Not Active | Not Active | Not Active | Not Active | Not Active | Not Active | Not Active | – |
| c1ccc2c(c1)Nc1ccccc1S2 [PHENOTHIAZINE] | Not Active | Not Active | Not Active | Not Active | Not Active | Not Active | Not Active | Not Active | – | – | – | – | – | – | 4.64 |
| CC[C@H]1OC(=O)[C@H](C)[C@@H](O[C@H]2C[C@@](C)(OC)[C@@H](O)[C@H](C)O2)[C@H](C)[C@@H](O[C@@H]2O[C@H](C)C[C@H](N(C)C)[C@H]2O)[C@](C)(O)C[C@@H](C)C(=O)[C@H](C)[C@@H](O)[C@]1(C)O [ERYTHROMYCIN] | Not Active | Not Active | Not Active | Not Active | Not Active | Not Active | Not Active | Not Active | Not Active | – | – | – | – | – | – |
| NS(=O)(=O)c1cc(C(=O)O)c(NCc2ccco2)cc1Cl [FUROSEMIDE] | Not Active | Not Active | Not Active | Not Active | Not Active | Not Active | Not Active | Not Active | Not Active | – | – | – | – | – | – |
| COc1cc([C@@H]2c3cc4c(cc3[C@H](O)[C@H]3COC(=O)[C@H]23)OCO4)cc(OC)c1OC [PODOFILOX] | Not Active | Not Active | Not Active | Not Active | Not Active | Not Active | Not Active | Not Active | Not Active | – | – | – | – | – | – |
